Results as given in the supplement of paper PMC10307832.

Key:
Assay in all cases: relative viability (nuclei count vs DMSO), 5 days (fraction); higher = more cells survive
AT9283 + Trametinib = compound: O=C(Nc1c[nH]nc1-c1nc2ccc(CN3CCOCC3)cc2[nH]1)NC1CC1 [AT9283] + CC(=O)Nc1cccc(-n2c(=O)n(C3CC3)c(=O)c3c(Nc4ccc(I)cc4F)n(C)c(=O)c(C)c32)c1 [Trametinib] (partner 0.02 µM)
In short: (§1)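 Lung cancer cell lines in 1536-well plates were dosed by pin tool the day after seeding, either with one drug alone or with a fixed anchor-drug dose plus five library-drug doses (not always all listed) in √10 steps. After 5 days, cells were fixed and their nuclei stained in one step (final 0.05% Triton X-100, 1% formaldehyde, 1 ug/ml Hoechst), then counted on 4× images. Relative viability is the nuclei count in treated wells divided by that in vehicle wells. Values are medians of duplicate plates.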

Erlotinib + Luminespib = compound: C#Cc1cccc(Nc2ncnc3cc(OCCOC)c(OCCOC)cc23)c1 [Erlotinib] + CCNC(=O)c1noc(-c2cc(C(C)C)c(O)cc2O)c1-c1ccc(CN2CCOCC2)cc1 [Luminespib] (partner 0.01 µM)
In short: as §1

Erlotinib + Foretinib = compound: C#Cc1cccc(Nc2ncnc3cc(OCCOC)c(OCCOC)cc23)c1 [Erlotinib] + COc1cc2c(Oc3ccc(NC(=O)C4(C(=O)Nc5ccc(F)cc5)CC4)cc3F)ccnc2cc1OCCCN1CCOCC1 [Foretinib] (partner 0.25 µM)
In short: as §1

Erlotinib + Alpelisib = compound: C#Cc1cccc(Nc2ncnc3cc(OCCOC)c(OCCOC)cc23)c1 [Erlotinib] + Cc1nc(NC(=O)N2CCC[C@H]2C(N)=O)sc1-c1ccnc(C(C)(C)C(F)(F)F)c1 [Alpelisib] (partner 2 µM)
In short: as §1

AT9283 + Alpelisib = compound: O=C(Nc1c[nH]nc1-c1nc2ccc(CN3CCOCC3)cc2[nH]1)NC1CC1 [AT9283] + Cc1nc(NC(=O)N2CCC[C@H]2C(N)=O)sc1-c1ccnc(C(C)(C)C(F)(F)F)c1 [Alpelisib] (partner 2 µM)
In short: as §1

Cell Line	relative viability (AT9283 + Trametinib; first compound 0.003 µM)	relative viability (AT9283 + Trametinib; first compound 0.03 µM)	relative viability (AT9283 + Trametinib; first compound 0.09487 µM)	relative viability (AT9283 + Trametinib; first compound 0.3 µM)	relative viability (Erlotinib + Luminespib; first compound 0.02 µM)	relative viability (Erlotinib + Luminespib; first compound 0.2 µM)	relative viability (Erlotinib + Luminespib; first compound 0.6325 µM)	relative viability (Erlotinib + Luminespib; first compound 2 µM)	relative viability (Erlotinib + Foretinib; first compound 0.02 µM)	relative viability (Erlotinib + Foretinib; first compound 0.2 µM)	relative viability (Erlotinib + Foretinib; first compound 0.6325 µM)	relative viability (Erlotinib + Foretinib; first compound 2 µM)	relative viability (Erlotinib + Alpelisib; first compound 0.02 µM)	relative viability (Erlotinib + Alpelisib; first compound 0.2 µM)	relative viability (Erlotinib + Alpelisib; first compound 0.6325 µM)	relative viability (Erlotinib + Alpelisib; first compound 2 µM)	relative viability (AT9283 + Alpelisib; first compound 0.003 µM)	relative viability (AT9283 + Alpelisib; first compound 0.03 µM)	relative viability (AT9283 + Alpelisib; first compound 0.09487 µM)	relative viability (AT9283 + Alpelisib; first compound 0.3 µM)
ChaGo-K-1	0.78	0.844	0.494	0.205	0.635	0.541	0.604	0.505	0.913	0.836	0.923	0.879								
EBC-1									0.0955	0.0898	0.104	0.0948	0.792	0.772	0.757	0.792	0.961	0.291	0.176	0.177
EKVX	0.361	0.345	0.32	0.191	0.833	0.615	0.444	0.207	0.519		0.267	0.267	0.835	0.403	0.315	0.116	0.934	0.726	0.356	0.218
EMC-BAC-2	0.923	0.58	0.362	0.336	1.12	1.06	1.19	1.03	1.05	0.778	0.877	0.898	0.762	0.649	0.685	0.542	0.775	0.499	0.173	0.157
EPLC-272H	0.285	0.287	0.161	0.152	0.176	0.233	0.326	0.196	0.821	0.477	0.534	0.342	1.01	0.979	0.818	0.679	0.872	0.831	0.954	0.2
H3255	0.65	0.614	0.459	0.284	0.768	0.531	0.326	0.295	0.808	0.624	0.472	0.171	0.674	0.34	0.16	0.13	0.652	0.68	0.443	0.178
HARA	0.691	0.203	0.118	0.151	0.784	0.417	0.586	0.255	0.929	0.602	0.636	0.401	0.946	0.619	0.646	0.256	0.643	0.844	0.0814	0.0973
HCC-15	0.377	0.381	0.178	0.149	0.241	0.376	0.236	0.208	0.996	1.01	1.15	0.934	0.897	0.844	0.913	0.77	0.874	0.598	0.134	0.135
HCC-44	0.923	1.07	0.635	0.938	0.912	1.02	1.62	1.03					0.821	0.698	0.909	0.707	0.784	0.795	0.2	0.116
